Results on 3 molecules are retold here after patent publication US20220071976A1 (CHASE THERAPEUTICS CORPORATION, priority 2018, published 2022).

For series [1] the following is noted: cited from earlier work; for improvement over baseline versus placebo on the MADRS: endpoint week 8, pramipexole 1.0 mg/day, fluoxetine 20 mg/day.
For series [2] the following is noted: high doses of pramipexole; cited from earlier work.

“Also recorded” adds a separate entry of the source.

As for `CNCCC(Oc1ccc(C(F)(F)F)cc1)c1ccccc1` (stereo not shown) [fluoxetine], the “improvement over baseline versus placebo on the MADRS” value in series [1] is on record as “significantly better improvement over baseline than the placebo group”.

Turning to `CCCN[C@H]1CCc2nc(N)sc2C1` [pramipexole, (S)-6-propylamino-4,5,6,7-tetrahydro-1,3-benzothiazole-2-amine], in series [2], the “activity in animal behavior tests simulating symptoms of depression” value is given as “active”. Also, in series [1], the “improvement over baseline versus placebo on the MADRS” value was “significantly better improvement over baseline than the placebo group”. Further, in series [1] (pramipexole 5.0 mg/day group), the patients reporting nausea was 76%; the patients reporting vomiting is listed as 39%; the “patients who discontinued treatment prematurely, mainly because of adverse events” value is recorded as 57.6%. The “improvement at week 8 (change from baseline)” value in series [1] (pramipexole 5.0 mg/day group, scale not stated, no p value because of high drop-out rate) is −15.00. Also, the “subjects reaching first intolerable dose FID-1” value (human, in vivo, po) was “All subjects reached FID-1”. For the same molecule, for the setting “pramipexole alone, single oral increasing doses”, the dose limiting toxicity result is recorded as “gastro-intestinal adverse events in all subjects”.

As to `O=c1[nH]c2ccccc2n1CCCN1CCC(n2c(=O)[nH]c3cc(Cl)ccc32)CC1` [domperidone, 5-chloro-1-(1-[3-(2-oxo-2,3-dihydro-1H-benzo[d]imidazol-1-yl)propyl]piperidin-4-yl)-1H-benzo[d]imidazol-2(3H)-one], the “effect on dose-limiting gastro-intestinal adverse events of pramipexole” value (concomitant oral administration of domperidone with high doses of pramipexole) is given as “prevented the occurrence of dose-limiting gastro-intestinal adverse events; also recorded: attenuated dose-limiting gastro-intestinal adverse effects”.
